Four molecules from patent US11834414B2, “1-methyl-4-[(4-phenylphenyl)sulfonylmethyl]cyclohexyanol and 1-methyl-4-[[4-(2-pyridyl)phenyl]sulfonylmethyl]cyclohexanol compounds and their therapeutic use” (Modern Biosciences Limited, priority 2018, dated 2023) can be followed below.

pIC50: −log10 of the molar value. Like-named read-outs stand apart in the source and are kept apart here.

The target of series [1] is T1, CYP1A2 (Homo sapiens (Human), UniProt P05177). The experiment in a line: Human Cytochrome P450 Inhibition Assay (Bactosomes).
The test system of series [2] is rat hepatocytes. Kind of series: Rat hepatocyte stability. The settings on record: 1 μM, 60 minute incubation. The format is in vitro ADME. The method, then:
(§1) Metabolic stability of test compounds was measured by determination of the rate of disappearance of the compound when incubated in the presence of rat or human hepatocytes, a primary source of the most important enzymes (cytochrome P450s) involved in drug metabolism. Study of drug stability in the presence of primary hepatocytes is accepted as a valuable model permitting rapid prediction of in vivo drug stability.
(§2) Rat or human hepatocytes were obtained from a commercial source and viability was assessed using a trypan blue solution prior to use. Test compounds (final concentration 1 μM, 0.1% DMSO, 0.9% acetonitrile) or a marker (diclofenac or diltiazem, final assay concentration 1 μM, 0.1% DMSO, 0.9% acetonitrile) were incubated with pooled hepatocytes for a 60 minute period and samples removed at up to 6 time points and analysed by LC-MS/MS for the presence/amount of test compounds.
(§3) Each compound was incubated for 0, 5, 15, 30, 45, or 60 minutes. The reactions were stopped by the addition of methanol containing an internal standard (1 μM Tolbutamide) at the appropriate time points, mixed and placed at −20° C. for ≥1 hour to quench and allow protein to precipitate. All samples were centrifuged (2500×g, 20 minutes, 4° C.). The aliquots were analysed using LC-MS/MS. Reactions were performed in duplicate at 37° C.
(§4) Data were processed, and the results plotted as In(concentration) vs. time. The elimination rate constant (slope of the regression line, k) was calculated using the following formula, where C(t) is the concentration at time t and C(0) is the starting concentration:
(§5) The half-life (t1/2) was calculated using the following formula: […]
(§6) The intrinsic clearance (CIint) was calculated using the following formula, where [cell] is the hepatocyte concentration in the assay: […]

Series [3] deals with CYP3A4 (Homo sapiens (Human), UniProt P08684). Kind of series: Human Cytochrome P450 Inhibition Assay (Bactosomes). The conditions noted are these: recombinant Bactosomes, 10 minutes, 37° C. The format is in vitro ADME.
Series [4] deals with human hepatocytes. Kind of series: Human hepatocyte stability. The series is classed as in vitro ADME. The conditions noted are these: human hepatocytes, 1 μM, 60 minute incubation. The method, then:
as §1, §2, §3, §4, §5, §6

For series [5], the target named is CYP2C19 (Homo sapiens (Human), UniProt P33261). Kind of series: Human Cytochrome P450 Inhibition Assay (Bactosomes). The series is classed as in vitro ADME. The conditions noted are these: recombinant Bactosomes, 10 minutes, 37° C.
In series [6] the target is CYP2C9 (Homo sapiens (Human), UniProt P11712). Described as above. The series is classed as in vitro ADME. The conditions noted are these: recombinant Bactosomes, 10 minutes, 37° C.
The target of series [7] is CYP2D6 (Homo sapiens (Human), UniProt P10635). The series is described as above. The conditions noted are these: recombinant Bactosomes, 10 minutes, 37° C. The series is classed as in vitro ADME.
Series [8] relates to Thp1 human monocytic cells. The experiment in a line: Thp1 Monocyte ATP Production Assay. The series is classed as cell-based. The settings on record: Thp1 cells, 24 hour incubation, ATPLite; 9-point range 10 μM to 10 nM, mean of 2 independent experiments. The method, then:
In vitro potency of test compounds was determined by incubation with Thp1 human monocytic cells and subsequent determination of Adenosine TriPhosphate (ATP) levels using firefly luciferase.
ATP is present in all metabolically active cells. When cells lose integrity, their ability to synthesise ATP is rapidly lost. […] See, e.g., Kang et al., 2015; Jiang et al., 2013. Levels of ATP can be monitored using a system based on firefly (Photinus pyralis) luciferase (see, e.g., Auld et al., 2009) using commercially available kits. A system known as
ATPlite™ was using to measure effects of the test compounds on cellular viability in vitro. This one-step assay system is an adenosine triphosphate (ATP) monitoring system based on the production of light caused by the reaction of ATP from the cells with added luciferase and D-luciferin, as illustrated in the reaction scheme below:
The emitted light is proportional to the ATP concentration.
Thp1 cells were plated at 112500 cells per well in 125 μL RPMI-1640 (no glucose) with 1% FBS in 96-well plates. Test compounds were prepared as 100 mM solutions in DMSO. These stock solutions were diluted in DMSO and then diluted 1000× in culture medium (RPMI) before being added directly to the wells so as to give the desired final compound concentration. After a 24 hour incubation at 37° C./5% CO2, ATPLite™ (Perkin Elmer) was added to each well (1:10 v/v, 10 μL). The plate was then incubated at room temperature for 5 minutes and the emitted light was quantified on Viewlux with a measurement time of 0.3 seconds and binning 4×4.
The average results for each test compound were expressed as a percent (%) of the average control value reflecting cell viability. The average values across the concentrations tested were then plotted and the IC50 for was calculated by fitting the data to a 4-parameter IC50 equation using software from Graf it (Erithacus Software). Each experiment was repeated twice and the data are presented as the mean IC50 from both experiments.

In series [9] the test system is collagen-induced arthritis in DBA/1j mice. The experiment in a line: Mouse Collagen-Induced Arthritis. The series is classed as in vivo. The conditions noted are these: 10 mg/kg/day, once daily for 14 days, arthritic index vs control. The method, then: Seven- to eight-week-old male DBA/1j mice were used for all procedures. Animals were housed in groups of 10, and were maintained at 21° C.±2° C. on a 12-hour light/dark cycle with food and water ad libitum. Complete Freund's adjuvant (CFA) was prepared by emulsifying bovine type II collagen at 4 mg/mL with a 4 mg/mL suspension of Mycobacterium tuberculosis H37Ra in Incomplete Freund's Adjuvant (IFA) (0.85 mL paraffin oil and 0.15 mL mannide monooleate) in a 1:1 (v/v) ratio. All mice were immunised subcutaneously with 200 μg of bovine type II collagen in CFA. 21 days later, all mice were immunised subcutaneously with 100 μg of bovine type II collagen in IFA. The mice started to develop signs and symptoms of arthritis following the ‘booster’ immunisation.
For macroscopic assessment of arthritis, the following signs were monitored in each paw of each mouse three times per week and summed to generate the Arthritic Index (AI) (the maximum AI for one animal is 16): • 0=no visible effects of arthritis. • 1=oedema and/or erythema of 1 digit. • 2=oedema and/or erythema of 2 digits. • 3=oedema and/or erythema of more than 2 digits. • 4=severe arthritis of entire paw and digits.
Animals were sorted into treatment groups with a mean arthritic index of 2.5 and then dosed once daily for 14 days with compound: by oral gavage for test compounds, or by subcutaneous injection at a dose of 10 mg/kg for the positive control, etanercept. After completion of the experiment, the mice were sacrificed.
The data were analysed by generating an average of the arthritic index across each treatment group. The mean arthritic index was then compared to the arthritic index of control (untreated) animals using the following formula to generate a percentage inhibition of disease.

Series [10] addresses T1, CYP1A2. The settings on record: recombinant enzyme.

CYP3A4, sequence (P08684 whole entry): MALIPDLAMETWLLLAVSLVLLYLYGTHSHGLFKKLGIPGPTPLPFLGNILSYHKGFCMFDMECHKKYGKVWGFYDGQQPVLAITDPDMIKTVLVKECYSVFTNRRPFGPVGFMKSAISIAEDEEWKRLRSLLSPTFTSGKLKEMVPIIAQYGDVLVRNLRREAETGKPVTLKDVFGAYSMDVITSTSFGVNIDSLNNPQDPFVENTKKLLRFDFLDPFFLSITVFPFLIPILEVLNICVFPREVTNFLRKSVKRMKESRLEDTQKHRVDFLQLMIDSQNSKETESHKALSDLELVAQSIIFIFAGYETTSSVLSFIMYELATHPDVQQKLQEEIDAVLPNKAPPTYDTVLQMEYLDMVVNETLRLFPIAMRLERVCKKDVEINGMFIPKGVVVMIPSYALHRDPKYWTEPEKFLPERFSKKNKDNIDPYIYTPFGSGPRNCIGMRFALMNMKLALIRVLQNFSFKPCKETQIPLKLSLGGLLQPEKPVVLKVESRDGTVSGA
CYP2C9, sequence (P11712 whole entry): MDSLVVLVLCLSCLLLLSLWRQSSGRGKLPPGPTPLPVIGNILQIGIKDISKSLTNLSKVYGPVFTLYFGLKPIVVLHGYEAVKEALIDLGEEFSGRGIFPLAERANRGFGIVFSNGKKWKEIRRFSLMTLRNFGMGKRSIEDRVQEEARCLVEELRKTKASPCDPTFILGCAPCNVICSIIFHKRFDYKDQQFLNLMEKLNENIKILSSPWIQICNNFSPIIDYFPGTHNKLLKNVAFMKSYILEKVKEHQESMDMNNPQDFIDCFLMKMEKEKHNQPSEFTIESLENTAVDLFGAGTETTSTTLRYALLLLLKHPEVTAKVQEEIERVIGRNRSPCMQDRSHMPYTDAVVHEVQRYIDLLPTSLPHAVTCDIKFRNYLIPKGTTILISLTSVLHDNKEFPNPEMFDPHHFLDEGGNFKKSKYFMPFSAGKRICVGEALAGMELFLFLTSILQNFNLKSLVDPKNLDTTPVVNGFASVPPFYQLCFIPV
T1 sequence (P05177 whole entry): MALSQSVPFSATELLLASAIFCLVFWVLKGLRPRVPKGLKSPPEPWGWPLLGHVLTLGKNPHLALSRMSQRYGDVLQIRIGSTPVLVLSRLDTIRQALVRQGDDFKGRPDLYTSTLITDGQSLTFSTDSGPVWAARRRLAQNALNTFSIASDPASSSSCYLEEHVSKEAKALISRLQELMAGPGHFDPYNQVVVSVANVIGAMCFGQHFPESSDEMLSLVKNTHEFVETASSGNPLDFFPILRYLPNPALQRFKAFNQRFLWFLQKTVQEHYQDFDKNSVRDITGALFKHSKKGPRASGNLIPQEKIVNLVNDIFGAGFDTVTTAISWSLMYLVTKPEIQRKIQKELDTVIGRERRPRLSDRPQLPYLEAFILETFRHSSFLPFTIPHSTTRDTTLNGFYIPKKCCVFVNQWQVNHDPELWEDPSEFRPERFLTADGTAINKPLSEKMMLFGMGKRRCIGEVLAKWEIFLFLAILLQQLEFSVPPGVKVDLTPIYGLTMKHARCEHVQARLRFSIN
CYP2D6, sequence (P10635 whole entry): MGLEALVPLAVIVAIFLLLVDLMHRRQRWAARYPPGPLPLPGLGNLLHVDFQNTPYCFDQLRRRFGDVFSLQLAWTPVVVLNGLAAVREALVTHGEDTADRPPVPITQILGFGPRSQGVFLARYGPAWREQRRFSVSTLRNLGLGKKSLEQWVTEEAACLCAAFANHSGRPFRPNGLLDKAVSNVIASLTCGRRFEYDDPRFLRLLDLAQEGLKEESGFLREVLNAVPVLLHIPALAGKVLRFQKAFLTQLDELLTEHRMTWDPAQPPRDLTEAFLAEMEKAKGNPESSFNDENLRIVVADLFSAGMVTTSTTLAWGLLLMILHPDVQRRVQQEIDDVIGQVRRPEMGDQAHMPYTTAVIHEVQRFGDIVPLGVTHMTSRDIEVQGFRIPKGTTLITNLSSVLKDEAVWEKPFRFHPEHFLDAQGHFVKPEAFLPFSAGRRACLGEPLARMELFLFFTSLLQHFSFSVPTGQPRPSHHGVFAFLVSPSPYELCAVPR
CYP2C19, sequence (P33261 whole entry): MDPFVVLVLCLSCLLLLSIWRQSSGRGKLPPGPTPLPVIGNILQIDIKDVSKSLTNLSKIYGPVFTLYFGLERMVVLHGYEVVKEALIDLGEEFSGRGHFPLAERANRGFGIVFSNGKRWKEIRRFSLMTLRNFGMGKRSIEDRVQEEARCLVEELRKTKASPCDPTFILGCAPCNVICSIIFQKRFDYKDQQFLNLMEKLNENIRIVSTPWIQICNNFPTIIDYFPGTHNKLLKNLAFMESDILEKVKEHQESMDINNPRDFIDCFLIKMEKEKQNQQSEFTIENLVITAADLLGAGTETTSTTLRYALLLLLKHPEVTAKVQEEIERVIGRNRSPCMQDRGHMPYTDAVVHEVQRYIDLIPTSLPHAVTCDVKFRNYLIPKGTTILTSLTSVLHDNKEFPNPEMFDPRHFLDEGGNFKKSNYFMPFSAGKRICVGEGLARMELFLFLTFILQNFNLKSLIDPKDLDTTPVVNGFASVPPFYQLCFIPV

Take `C[C@]1(O)CC[C@@H](NS(=O)(=O)c2ccc(-c3ccc(F)cc3F)cc2)CC1` [ABD899, reference compound]: the pIC50 (in general, the IC50 on a negative log10 scale, so that one unit is a factor of ten) in [1] is less than 4.60; in series [3] it was 4.67; in series [5], 5.14; in series [6], 5.41; in series [7] it was 4.34; in series [8], 6.70. For the same molecule, the “Rat Clint (μL/min/million cells)” value in series [2] is 57 μL/min/million cells. The “Rat t1/2” value in series [2] amounted to 0.4 h. For the same molecule, in [4], the “Human Clint (uL/min/million cells)” value was determined as 9 uL/min/million cells. For the same molecule, the “Human t1/2” value in series [4] was 2.48 h. Moreover, the “% inhibition of disease” value in series [9] stood at 77%.

As for `CC1(O)CCC(NS(=O)(=O)c2ccc(-c3cc(F)c(F)cc3F)cc2)CC1` (centres unmarked) [HMC-C-10-B, reference compound], the pIC50 in series [3] is 5.04; in series [5], 5.07; in series [6] it was 5.62; in [7], less than 4.80; in series [10] it was less than 4.80.

With `CC1(O)CCC(NS(=O)(=O)c2ccc(-c3ccc(Cl)cc3C#N)c(Cl)c2)CC1` (centres unmarked) [HMC-C-11-A, reference compound], the pIC50 in series [3] was 4.92; in [5] it was 5.29; in [6] it was 5.57; in [7], 5.03; in [10], 4.96.

On to `CC1(O)CCC(NS(=O)(=O)c2ccc(-c3ncc(Cl)cc3C#N)cc2)CC1` (centres unmarked) [HMC-N-05-A, reference compound], for which the pIC50 in [3] was less than 4.30; in series [5], less than 4.30; in [6] it was 4.57; in series [7], less than 4.30; in [10] it was 4.44.
